Laboratory results reported in patent EP1881000A1, “Conjugates of 2-fluoro-2-deoxy-glucose and their uses as anti cancer agents” (INSTITUT NATIONAL DE LA SANTE ET DE LA RECHERCHE MEDICALE …, priority 2006, dated 2008).

How the values were obtained:
Experiment in all cases: In vitro cytotoxicity assay (resazurin reduction test)
Format in all cases: cell-based
[1] = test system: Breast cancer adenocarcinoma MCF 7; conditions: Homo sapiens; MCF7; 48-h continuous drug exposure
From the text: (§1) Normal human fibroblasts were purchased from Promocell (Heidelberg, Germany). This frozen culture was obtained from foreskin waste and the cells used in this work were from the seventh to twelfth passage of the culture. M4Beu, a human melanoma cell line, was established in the laboratory of Dr. J. F. Doré (INSERM, Unit 218, Lyon, France) from metastatic biopsy specimens and maintained in cell culture for almost 20 years in our lab. Breast cancer adenocarcinoma MCF 7, prostatic adenocarcinoma PC 3, colon adenocarcinoma DLD-1, lung non-small cell carcinoma A 549, ovary adenocarcinoma PA1 human cell lines and L 929 murine cell line were purchased from the European Collection of Cell Cultures (ECACC; Salisbury, United Kingdom). Murine Melanoma B16 was purchased from American Type of Culture Collection (ATCC, Manassas, USA) and murine colon carcinoma cell line CT-26 was obtained from Dr I. J. Fidler (University of Texas M.D. Anderson Cancer Center, Houston).
(§2) Stock cell cultures were maintained as monolayers in 75cm^2 culture flasks in Glutamax Eagle's minimum essential medium with Earle's salts (MEM; Gibco BRL, Paisley, UK) supplemented with 10% fetal calf serum (Sigma, St Quentin Fallavier, France), 1 mM sodium pyruvate (Gibco), 1X vitamins solution (Gibco), 1X non essential amino acids solution (Gibco) and 4 µg/ml of gentamicine (Gibco). Cells were grown at 37°C in a humidified atmosphere containing 5% CO2.
(§3) Cells were plated at a density of 5 x 10^3 cells per well in 96-well microplates (Nunclon™, Nunc, Roskilde, Denmark) in 150 µl of culture medium and were allowed to adhere for 16 h before treatment with the compound tested.
(§4) Stock solution of each compound was prepared in dimethylsulfoxide (DMSO) and kept at -20°C. until use. The percentage of DMSO was kept at 0.5% (v/v) whichever the concentration tested. […] Fifty microliters of a 4X solution in MEM was then added and a 48-h continuous drug exposure protocol was used. Then, the cytotoxic effect of compounds on tumour cells was tested by using Resazurin reduction test.
(§5) Resazurin was identified as the Alamar blue dye (O'Brien, J. et al.; European Journal of Biochemistry, 267, 5421-6, (2000)). The resazurin reduction test (RRT) was carried out according to the protocol described here. Briefly, plates were rinsed by 200 µl PBS (37° C, Gibco) using a multichannel dispenser (Labsystems, Helsinki, Finland) and emptied by overturning on absorbent toweling. Then, 150 µl of a 25 µg/ml solution of resazurin in MEM without SVF nor Phenol red was added in each well. The plates were incubated 1 h at 37° C. in an humidified atmosphere with 5% of CO2 for fluorescence development by living cells. Fluorescence was then measured on the automated 96-well plate reader Fluoroskan Ascent FL™ (Labsystems) using an excitation wavelength of 530 nm and an emission one of 590 nm.
(§6) Cytotoxic activity has been tested against the six human tumour cell lines breast adenocarcinoma MCF-7, colon adenocarcinoma DLD-1, ovary adenocarcinoma PA1, prostatic adenocarcinoma PC3, lung carcinoma A549, melanoma M4Beu and a primary culture of human fibroblasts.

[2] = test system: M4Beu, a human melanoma cell line; conditions: 48-h continuous drug exposure
From the text: as §1, §2, §3, §4, §5, §6

Normal human fibroblasts = conditions: Fibroblast, 48-h continuous drug exposure
From the text: as §1, §2, §3, §4, §5, §6

[3] = test system: colon adenocarcinoma DLD-1; conditions: Homo sapiens, DLD1, 48-h continuous drug exposure
From the text: as §1, §2, §3, §4, §5, §6

[4] = test system: lung non-small cell carcinoma A 549; conditions: Homo sapiens; A549; 48-h continuous drug exposure
From the text: as §1, §2, §3, §4, §5, §6

ovary adenocarcinoma PA1 = conditions: Homo sapiens, 48-h continuous drug exposure
From the text: as §1, §2, §3, §4, §5, §6

[5] = test system: prostatic adenocarcinoma PC 3; conditions: Homo sapiens; PC3; 48-h continuous drug exposure
From the text: as §1, §2, §3, §4, §5, §6

Murine Melanoma B16 = conditions: Mus musculus, 48-h continuous drug exposure
From the text: as §1, §2, §3, §4, §5

[6] = test system: murine colon carcinoma cell line CT-26; conditions: Mus musculus; CT26; 48-h continuous drug exposure
From the text: as §1, §2, §3, §4, §5

| SMILES | IC50 [1] [µM] | IC50 [2] [µM] | IC50 (Normal human fibroblasts) [µM] | IC50 [3] [µM] | IC50 [4] [µM] | IC50 (ovary adenocarcinoma PA1) [µM] | IC50 [5] [µM] | IC50 (Murine Melanoma B16) [µM] | IC50 [6] [µM] |
| --- | --- | --- | --- | --- | --- | --- | --- | --- | --- |
| CC(=O)OC[C@H]1O[C@@H](NC(=O)c2ccc(NC(=O)CCCc3ccc(N(CCCl)CCCl)cc3)cc2)[C@H](F)[C@@H](OC(C)=O)[C@@H]1OC(C)=O [Compound 20a, N-(3,4,6-tri-O-acetyl-2-deoxy-2-fluoro-β-D-glucopyranosyl)-4-(4-{4-[bis(2-chloroethyl)amino]phenyl}butanamido)benzamide] | 5 ± 2 | 7 ± 3 | 4 ± 2 | 3 ± 2 | 2.7 ± 0.6 | 0.3 ± 0.1 | 1.4 ± 0.3 | 4.6 ± 0.3 | 1.7 ± 0.3 |
| CC(=O)OC[C@H]1O[C@@H](NC(=O)CCCNC(=O)CCCc2ccc(N(CCCl)CCCl)cc2)[C@H](F)[C@@H](OC(C)=O)[C@@H]1OC(C)=O [Compound 22a, N-[4-(3,4,6-tri-O-acetyl-2-deoxy-2-fluoro-β-D-glucopyranosylamino)-4-oxobutyl]-4-{4-[bis(2-chloroethyl)amino]phenyl}butanamide] | 12 ± 1 | 9 ± 3 | 4.1 ± 0.1 | 9 ± 2 | 13 ± 5 | 0.27 ± 0.04 | 3 ± 1 | – | – |
| CC(=O)OC[C@H]1O[C@@H](NC(=O)CCNC(=O)CCCc2ccc(N(CCCl)CCCl)cc2)[C@H](F)[C@@H](OC(C)=O)[C@@H]1OC(C)=O [Compound 31a, N-[3-(3,4,6-tri-O-acetyl-2-deoxy-2-fluoro-β-D-glucopyranosylamino)-3-oxopropyl]-4-{4-[bis(2-chloroethyl)amino]phenyl}butanamide] | 13 ± 5 | 15 ± 3 | 7 ± 5 | 11 ± 4 | 9.2 ± 0.5 | 0.24 ± 0.08 | 3.7 ± 0.3 | – | – |
| CC(=O)OC[C@H]1O[C@@H](NC(=O)NCCCc2ccc(N(CCCl)CCCl)cc2)[C@H](F)[C@@H](OC(C)=O)[C@@H]1OC(C)=O [Compound 17a, N-(3,4,6-tri-O-acetyl-2-deoxy-2-fluoro-β-D-glucopyranosyl)-N'-{3-(4-[bis(2-chloroethyl)amino]phenyl)propyl}urea] | 26.4 ± 0.6 | 27 ± 11 | 13 ± 2 | 7 ± 3 | 8 ± 2 | 0.6 ± 0.2 | 4 ± 1 | – | – |
| CC(=O)OC[C@H]1O[C@@H](Oc2ccc(NC(=O)CCCc3ccc(N(CCCl)CCCl)cc3)cc2)[C@H](F)[C@@H](OC(C)=O)[C@@H]1OC(C)=O [Compound 37a, N-[4-(3,4,6-tri-O-acetyl-2-deoxy-2-fluoro-β-D-glucopyranosyloxy)phenyl]-4-{4-[bis(2-chloroethyl)amino]phenyl}butanamide] | 26 ± 11 | > 50 | > 50 | 10 ± 5 | 1.9 ± 0.01 | 0.76 ± 0.06 | 11 ± 4 | – | – |
